The record followed here is PubChem BioAssay (NCI).

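Five compound concentrations were applied to cells in 96-well plates for 48 hours; endpoints were derived by simple linear interpolation of the resulting dose-response curve. The concentration for full growth arrest is given as TGI.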 Some results are limits rather than exact numbers.

One assay concerns NCI-H522 lung. Kind of assay: NCI tumour cell line growth inhibition, 48 h.
Take `CC1(C)CCCC2OC2CCC(C)(C)C1=O` (stereo unspecified): the TGI is more than 100 µM.

On to `O=C1NCC2(CCN(CCCC3(c4ccc(F)cc4)OCCO3)CC2)N1c1ccccc1`, for which the TGI was more than 100 µM.

Regarding `COc1ccc2c(c1)/C(=C\c1c(Cl)nc3sc(C)cn13)C(=O)N2`, the TGI is 14.4 µM.

Molecule `O=C(/C=C/c1ccc2c(c1)OCO2)CC(=O)C(=O)c1c[nH]c2ccccc12` registered a TGI of more than 100 µM.

Molecule `CC1=NN(c2cccc(Cl)c2)C2(SCC(=O)N2c2nc3ccccc3s2)/C1=C\c1ccccc1O` (stereo unspecified) came in with a TGI of 42.4 µM.

`Cc1c(S(=O)(=O)c2ccccc2)c(N)n(CCN(C)C)c1C`: the TGI was more than 100 µM.

For `COc1ccc2c(c1)OCC1Cc3ccccc3OC21` (stereo unspecified), the TGI was more than 100 µM.

As to `CCOC(=O)c1c(C)nc2c3ccccc3c(C#N)c(C)n12`, the TGI is 89.3 µM.

`CCOC(=O)c1cn2c(nc1=O)N[C@H]1CCCC[C@@H]12`: the TGI was more than 100 µM.

For `O=C(CC(C(=O)c1ccsc1)c1ccc2c(c1)OCO2)c1ccccc1` (stereo unspecified), the TGI was more than 100 µM.

For `Oc1ccc([I+]c2ccccc2)cc1O`, the TGI is more than 100 µM.

`NS(=O)(=O)c1cc(Cl)c(NC(=S)NC(=O)Nc2ccc(Cl)c(Cl)c2)c(Cl)c1` registered a TGI of 86.4 µM.

The next assay deals with NCI/ADR-RES ovarian. Kind of assay: NCI tumour cell line growth inhibition, 48 h.
Molecule `CC1(C)CCCC2OC2CCC(C)(C)C1=O` (stereo unspecified) gave a TGI of more than 100 µM.

The molecule `O=C1NCC2(CCN(CCCC3(c4ccc(F)cc4)OCCO3)CC2)N1c1ccccc1` came in with a TGI of more than 100 µM.

As for `COc1ccc2c(c1)/C(=C\c1c(Cl)nc3sc(C)cn13)C(=O)N2`, the TGI was 17.7 µM.

On to `O=C(/C=C/c1ccc2c(c1)OCO2)CC(=O)C(=O)c1c[nH]c2ccccc12`, for which the TGI is more than 100 µM.

In turn, `CC1=NN(c2cccc(Cl)c2)C2(SCC(=O)N2c2nc3ccccc3s2)/C1=C\c1ccccc1O` (stereo unspecified) came in with a TGI of 55.5 µM.

For the molecule `Cc1c(S(=O)(=O)c2ccccc2)c(N)n(CCN(C)C)c1C`, the TGI was more than 100 µM.

`COc1ccc2c(c1)OCC1Cc3ccccc3OC21` (stereo unspecified) yielded a TGI of more than 100 µM.

In turn, `CCOC(=O)c1c(C)nc2c3ccccc3c(C#N)c(C)n12` displayed a TGI of more than 100 µM.

In turn, `CCOC(=O)c1cn2c(nc1=O)N[C@H]1CCCC[C@@H]12` showed a TGI of more than 100 µM.

In turn, `O=C(CC(C(=O)c1ccsc1)c1ccc2c(c1)OCO2)c1ccccc1` (stereo unspecified) yielded a TGI of more than 100 µM.

Consider `Oc1ccc([I+]c2ccccc2)cc1O`, for which the TGI is more than 100 µM.

`NS(=O)(=O)c1cc(Cl)c(NC(=S)NC(=O)Nc2ccc(Cl)c(Cl)c2)c(Cl)c1` yielded a TGI of more than 100 µM.

For a further assay, the system named is RPMI-8226 leukemia. Kind of assay: NCI tumour cell line growth inhibition, 48 h.
`CC1(C)CCCC2OC2CCC(C)(C)C1=O` (stereo unspecified) came in with a TGI of more than 100 µM.

Consider `O=C1NCC2(CCN(CCCC3(c4ccc(F)cc4)OCCO3)CC2)N1c1ccccc1`, for which the TGI is more than 100 µM.

Molecule `COc1ccc2c(c1)/C(=C\c1c(Cl)nc3sc(C)cn13)C(=O)N2` came in with a TGI of 13.8 µM.

`O=C(/C=C/c1ccc2c(c1)OCO2)CC(=O)C(=O)c1c[nH]c2ccccc12` showed a TGI of more than 100 µM.

As to `CC1=NN(c2cccc(Cl)c2)C2(SCC(=O)N2c2nc3ccccc3s2)/C1=C\c1ccccc1O` (stereo unspecified), the TGI worked out at 40.3 µM.

For `Cc1c(S(=O)(=O)c2ccccc2)c(N)n(CCN(C)C)c1C`, the TGI was more than 100 µM.

In turn, `COc1ccc2c(c1)OCC1Cc3ccccc3OC21` (stereo unspecified) returned a TGI of more than 100 µM.

Consider `CCOC(=O)c1c(C)nc2c3ccccc3c(C#N)c(C)n12`, for which the TGI was more than 100 µM.

The molecule `CCOC(=O)c1cn2c(nc1=O)N[C@H]1CCCC[C@@H]12` gave a TGI of more than 100 µM.

The molecule `O=C(CC(C(=O)c1ccsc1)c1ccc2c(c1)OCO2)c1ccccc1` (stereo unspecified) returned a TGI of more than 100 µM.

`Oc1ccc([I+]c2ccccc2)cc1O` yielded a TGI of 61.4 µM.

Another assay concerns SF-295 CNS. Kind of assay: NCI tumour cell line growth inhibition, 48 h.
In turn, `CC1(C)CCCC2OC2CCC(C)(C)C1=O` (stereo unspecified) displayed a TGI of more than 100 µM.

Turning to `O=C1NCC2(CCN(CCCC3(c4ccc(F)cc4)OCCO3)CC2)N1c1ccccc1`, the TGI was more than 100 µM.

For the molecule `COc1ccc2c(c1)/C(=C\c1c(Cl)nc3sc(C)cn13)C(=O)N2`, the TGI was determined as 11 µM.

In turn, `O=C(/C=C/c1ccc2c(c1)OCO2)CC(=O)C(=O)c1c[nH]c2ccccc12` came in with a TGI of more than 100 µM.

Take `CC1=NN(c2cccc(Cl)c2)C2(SCC(=O)N2c2nc3ccccc3s2)/C1=C\c1ccccc1O` (stereo unspecified): the TGI is more than 100 µM.

Molecule `Cc1c(S(=O)(=O)c2ccccc2)c(N)n(CCN(C)C)c1C` yielded a TGI of more than 100 µM.

`COc1ccc2c(c1)OCC1Cc3ccccc3OC21` (stereo unspecified) displayed a TGI of more than 100 µM.

As to `CCOC(=O)c1c(C)nc2c3ccccc3c(C#N)c(C)n12`, the TGI was more than 100 µM.

With `CCOC(=O)c1cn2c(nc1=O)N[C@H]1CCCC[C@@H]12`, the TGI was more than 100 µM.

`O=C(CC(C(=O)c1ccsc1)c1ccc2c(c1)OCO2)c1ccccc1` (stereo unspecified) gave a TGI of more than 100 µM.

Regarding `Oc1ccc([I+]c2ccccc2)cc1O`, the TGI was more than 100 µM.

On to `NS(=O)(=O)c1cc(Cl)c(NC(=S)NC(=O)Nc2ccc(Cl)c(Cl)c2)c(Cl)c1`, for which the TGI is more than 100 µM.

A further assay relates to SNB-19 CNS. The assay can be described thus: NCI tumour cell line growth inhibition, 48 h.
Molecule `CC1(C)CCCC2OC2CCC(C)(C)C1=O` (stereo unspecified) gave a TGI of more than 100 µM.

On to `O=C1NCC2(CCN(CCCC3(c4ccc(F)cc4)OCCO3)CC2)N1c1ccccc1`, for which the TGI was more than 100 µM.

In turn, `COc1ccc2c(c1)/C(=C\c1c(Cl)nc3sc(C)cn13)C(=O)N2` yielded a TGI of 13.4 µM.

`O=C(/C=C/c1ccc2c(c1)OCO2)CC(=O)C(=O)c1c[nH]c2ccccc12` came in with a TGI of more than 100 µM.

`Cc1c(S(=O)(=O)c2ccccc2)c(N)n(CCN(C)C)c1C` showed a TGI of more than 100 µM.

The molecule `CCOC(=O)c1c(C)nc2c3ccccc3c(C#N)c(C)n12` came in with a TGI of more than 100 µM.

In the case of `CCOC(=O)c1cn2c(nc1=O)N[C@H]1CCCC[C@@H]12`, the TGI is more than 100 µM.

Take `Oc1ccc([I+]c2ccccc2)cc1O`: the TGI was more than 100 µM.

`NS(=O)(=O)c1cc(Cl)c(NC(=S)NC(=O)Nc2ccc(Cl)c(Cl)c2)c(Cl)c1` showed a TGI of more than 100 µM.
